For orientation: EC50 means the concentration at which the effect is half-maximal. A higher EC50 goes with weaker potency.

For this experiment, the system named is M17—3TAU(P301L) cells. The experiment is described as follows: Neuroblastoma tauopathy model: inhibition of TAU-induced cytotoxicity (LDH). Particulars: Homo sapiens, 168 h; inhibition of TAU-induced toxicity (LDH), 7 days differentiation with retinoic acid. Type of experiment: cell-based. From the text:
A TAU expression plasmid was constructed by sub-cloning the cDNA encoding for human TAU-P301L protein, wherein proline at position 301 is substituted by a leucine residue, into mammalian expression vector pcDNA3.1 resulting in the plasmid pcDNA3.1-TAUP301L. Plasmids pcDNA3.1 and pcDNA3.1-TAU P301L were transfected into human neuroblastoma cells (BE-M17; ATCC No. CRL-2267™) using lipofectamine reagent and subsequently, independent clonal cell lines with the plasmids stably integrated into the genome were selected by antibiotic resistance selection (Geneticin (G418)), resulting in cell lines M17.pcDNA3 and M17—3TAUP301L. Expression of the TAUP301L gene in the M17—3TAUP301L cells was confirmed by Western blot analysis.
Differentiation of the cells with RA leads to phosphorylation and subsequent aggregation of TAU, inducing a tauopathy in these cells. Cytotoxicity of cells was measured by quantification of lactate dehydrogenase (LDH) levels. In dead cells LDH is leaked out of the cells into the medium due to a loss of plasma-membrane integrity.
Briefly, 3 days preceding the experiment pre-cultures of M17.pcDNA3 and M17—3TAU(P301L) cells were prepared, starting from a stock culture, at a density of 50.000-100.000 cells/cm2 in detection medium (Optimem Reduced Serum without phenol red (Gibco, Cat. 31985-047) supplemented with 1% fetal calf serum (FCS), 1 mM sodium pyruvate, 1× non-essential amino acids (NEAA), 500 μg/ml G418 and 0.5× antibiotic/antimycotic (ABAM)). At the day of the experiment these precultures were diluted to ˜0, 1.106 cells/ml in detection medium without FCS and 60 μL of this suspension is dispensed per well into a 96-well microtiter plate. After 3 hours of incubation at 37° C./5% CO2 an equal volume of detection medium containing 2.5 μM RA was added and subsequently incubated for 7 days at 37° C./5% CO2. After 7 days, LDH activity was determined using the Promega Cytotox 96 Non-Radioactive cytotoxicity assay (Cat. G1780), according the manufacturer's instructions. Cytotoxicity is measured as the ratio of LDH increase in the supernatant divided by the LDH increase in the total cell suspension (sum of the LDH measured in cells and supernatant).
The M17—3TAU(P301L) cell line makes it possible to assess the ability of novel compounds to inhibit TAU-induced cytotoxicity. […] Compounds were tested for their ability to hamper TAU-induced toxicity at different concentrations, ranging from low non-effective concentrations to high potent concentrations. Afterwards, the dose-dependent inhibition curve was used to calculate their EC50 (Table 1).

In turn, `Fc1cccc(-c2nsc(N3CCN(CCc4ccc(F)c(F)c4)CC3)n2)c1` [Example 156, 5-(4-(3,4-difluorophenethyl)piperazin-1-yl)-3-(3-fluorophenyl)-1,2,4-thiadiazole] showed an EC50 of 11.9 nM.
The same measure for `N#Cc1ccc(-c2nsc(N3CCN(CCc4ccc(F)cc4)CC3)n2)cc1` [Example 110, 4-(5-{4-[2-(4-Fluoro-phenyl)-ethyl]piperazin-1-yl}-[1,2,4]thiadiazol-3-yl)-benzonitrile]: 17.8 nM; for `COc1cccc(CCN2CCN(c3nc(-c4ccncc4)ns3)CC2)c1` [Example 20, 1-[2-(3-Methoxy-phenyl)-ethyl]-4-(3-pyridin-4-yl-[1,2,4]thiadiazol-5-yl)-piperazine]: 174 nM.
In the case of `COc1cccc(CCN2CCN(c3nc(-c4ccccc4OC)ns3)CC2)c1` [Example 35, 1-[2-(3-Methoxy-phenyl)-ethyl]-4-[3-(2-methoxy-phenyl)-[1,2,4]thiadiazol-5-yl]-piperazine], the EC50 worked out at 3.5 nM.
With `Clc1ccc(CCN2CCN(c3nc(-c4ccc(Cl)cn4)ns3)CC2)cc1` [Example 124, 1-[2-(4-Chloro-phenyl)-ethyl]-4-[3-(5-chloro-pyridin-2-yl)-[1,2,4]thiadiazol-5-yl]-piperazine] the figure was 458 nM.
The same measure for `COc1cc(CCN2CCN(c3nc(-c4cc(Cl)ccn4)ns3)CC2)ccn1` [Example 127, 1-[3-(4-Chloro-pyridin-2-yl)-[1,2,4]thiadiazol-5-yl]-4-[2-(2-methoxy-pyridin-4-yl)-ethyl]-piperazine]: 109 nM; for `COc1cc(CCN2CCN(c3nc(-c4cnc(C)nc4)ns3)CC2)ccn1` [Example 183, 5-(4-(2-(2-methoxypyridin-4-yl)ethyl)piperazin-1-yl)-3-(2-methylpyrimidin-5-yl)-1,2,4-thiadiazole]: 152 nM.
For the compound `N#Cc1ccc(-c2nsc(N3CCN(CCc4ccccc4)CC3)n2)cc1` [Example 108, 4-[5-(4-Phenethyl-piperazin-1-yl)-[1,2,4]thiadiazol-3-yl]-benzonitrile], the midpoint of the response, the EC50, lay at 7.9 nM.
As to `CCOc1ccc(CCN2CCN(c3nc(-c4ccc(Cl)cc4)ns3)CC2)cc1` [Example 50, 1-[3-(4-Chloro-phenyl)-[1,2,4]thiadiazol-5-yl]-4-[2-(4-ethoxy-phenyl)-ethyl]-piperazine], the EC50 came to 169 nM.
The same measure for `Cc1ccc(-c2nsc(N3CCN(CCc4ccc(F)c(F)c4)CC3)n2)cn1` [Example 148, 1-[2-(3,4-Difluoro-phenyl)-ethyl]-4-[3-(6-methyl-pyridin-3-yl)-[1,2,4]thiadiazol-5-yl]-piperazine]: 67.5 nM.
With `Cc1ccc(-c2nsc(N3CCN(CCc4ccc(F)cc4)CC3)n2)cn1` [Example 96, 1-[2-(4-Fluoro-phenyl)-ethyl]-4-[3-(6-methyl-pyridin-3-yl)-[1,2,4]thiadiazol-5-yl]-piperazine] the figure was 28.1 nM.
The compound `COc1cc(CCN2CCN(c3nc(-c4ccc(F)c(F)c4)ns3)CC2)ccn1` [Example 106, 1-[3-(3,4-Difluoro-phenyl)-[1,2,4]thiadiazol-5-yl]-4-[2-(2-methoxy-pyridin-4-yl)-ethyl]-piperazine] showed an EC50 of 3 nM.
Compound `COc1cc(CCN2CCN(c3nc(-c4cnnc(C)c4)ns3)CC2)ccn1` [Example 176, 5-(4-(2-(2-methoxypyridin-4-yl)ethyl)piperazin-1-yl)-3-(6-methylpyridazin-4-yl)-1,2,4-thiadiazole] displayed an EC50 of 19.5 nM.
The same measure for `Cc1ccc(-c2nsc(N3CCN(CCCc4ccccc4)CC3)n2)cc1` [Example 155, 5-(4-(3-phenylpropyl)piperazin-1-yl)-3-(p-tolyl)-1,2,4-thiadiazole]: 976 nM; for `Clc1ccc(CCN2CCN(c3nc(-c4cncc(Cl)c4)ns3)CC2)cc1` [Example 132, 1-[2-(4-Chloro-phenyl)-ethyl]-4-[3-(5-chloro-pyridin-3-yl)-[1,2,4]thiadiazol-5-yl]-piperazine]: 3.3 nM.
The compound `COc1ccc(CCN2CCN(c3nc(-c4cnccn4)ns3)CC2)cc1` [Example 76, 2-(5-{4-[2-(4-Methoxy-phenyl)-ethyl]-piperazin-1-yl}-[1,2,4]thiadiazol-3-yl)-pyrazine] had an EC50 of 40.8 nM.
The same measure for `COc1ccc(CCN2CCN(c3nc(-c4cnc(C)nc4)ns3)CC2)cc1` [Example 179, 5-(4-(4-methoxyphenethyl)piperazin-1-yl)-3-(2-methylpyrimidin-5-yl)-1,2,4-thiadiazole]: 3.4 nM; for `Clc1ccc(-c2nsc(N3CCN(CCC4CCOCC4)CC3)n2)cc1` [Example 167, 3-(4-chlorophenyl)-5-(4-(2-(tetrahydro-2H-pyran-4-yl)ethyl)piperazin-1-yl)-1,2,4-thiadiazole]: 5.9 nM.
With `FC(F)Oc1cccc(CCN2CCN(c3nc(-c4ccc(Cl)cc4)ns3)CC2)c1` [Example 69, 1-[3-(4-Chloro-phenyl)-[1,2,4]thiadiazol-5-yl]-4-[2-(3-difluoromethoxy-phenyl)-ethyl]-piperazine] the figure was 43.7 nM; with `Fc1ccc(-c2nsc(N3CCN(CCc4ccccc4)CC3)n2)cc1F` [Example 101, 1-[3-(3,4-Difluoro-phenyl)-[1,2,4]thiadiazol-5-yl]-4-phenethyl-piperazine], 3.2 nM; with `Fc1ccc(-c2nsc(N3CCN(CCc4cccc(C(F)(F)F)c4)CC3)n2)cc1F` [Example 158, 3-(3,4-difluorophenyl)-5-(4-(3-(trifluoromethyl)phenethyl)piperazin-1-yl)-1,2,4-thiadiazole], 998 nM.
The compound `COc1ccc(CCN2CCN(c3nc(-c4ccc(OC(F)(F)F)cc4)ns3)CC2)cc1` [Example 37, 1-[2-(4-Methoxy-phenyl)-ethyl]-4-[3-(4-trifluoromethoxy-phenyl)-[1,2,4]thiadiazol-5-yl]-piperazine] displayed an EC50 of 2.9 nM.
With `Fc1ccc(CCN2CCN(c3nc(-c4cccc(Cl)c4)ns3)CC2)cc1F` [Example 135, 1-[3-(3-Chloro-phenyl)-[1,2,4]thiadiazol-5-yl]-4-[2-(3,4-difluoro-phenyl)-ethyl]-piperazine], a half-maximal response (EC50) required 4.5 nM.
With `COc1cccc(CCCN2CCN(c3nc(-c4ccc(Cl)cc4)ns3)CC2)c1` [Example 32, 1-[3-(4-Chloro-phenyl)-[1,2,4]thiadiazol-5-yl]-4-[3-(3-methoxy-phenyl)-propyl]-piperazine] the figure was 368 nM; with `COc1cccc(-c2nsc(N3CCN(Cc4ccccc4C)CC3)n2)c1` [Example 13, 1-[3-(3-Methoxy-phenyl)-[1,2,4]thiadiazol-5-yl]-4-(2-methyl-benzyl)-piperazine], 215 nM.
The same measure for `Fc1ccc(-c2nsc(N3CCN(CCC4CCCCC4)CC3)n2)cc1F` [Example 153, 1-(2-Cyclohexyl-ethyl)-4-[3-(3,4-difluoro-phenyl)-[1,2,4]thiadiazol-5-yl]-piperazine]: 5.9 nM; for `FC(F)(F)c1cccc(CCN2CCN(c3nc(-c4cncc(Cl)c4)ns3)CC2)c1` [Example 149, 1-[3-(5-Chloro-pyridin-3-yl)-[1,2,4]thiadiazol-5-yl]-4-[2-(3-trifluoromethyl-phenyl)-ethyl]-piperazine]: 3 nM.
With `COc1ccc(CCCN2CCN(c3nc(-c4ccc(Cl)cc4)ns3)CC2)cc1` [Example 52, 1-[3-(4-Chloro-phenyl)-[1,2,4]thiadiazol-5-yl]-4-[3-(4-methoxy-phenyl)-propyl]-piperazine], the EC50 turned out to be 327 nM.

(Values after patent US9023852B2, “1, 2, 4-thiadiazol-5-ylpiperazine derivatives useful in the treatment of neurodegenerative diseases” (Remynd NV, priority 2011, dated 2015).)
